Results as given in ChEMBL document CHEMBL1149317, “Synthesis and in vitro antifolate activity of rotationally restricted aminopterin and methotrexate analogues” (J Med Chem, 2004).
pIC50, pKi: −log10 of the molar value.

What was measured:
Dihydrofolate reductase = biological target: T1, Dihydrofolate reductase (Homo sapiens, UniProt P00374); assay: Inhibition of human DHFR
T1 sequence (P00374 whole entry): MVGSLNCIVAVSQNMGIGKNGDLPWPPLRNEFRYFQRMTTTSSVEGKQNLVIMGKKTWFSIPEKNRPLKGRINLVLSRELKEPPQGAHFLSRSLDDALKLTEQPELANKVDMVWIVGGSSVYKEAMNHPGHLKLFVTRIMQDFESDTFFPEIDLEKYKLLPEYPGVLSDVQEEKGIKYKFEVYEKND

[1] = biological target: T2, Reduced folate transporter (Homo sapiens, UniProt P41440); assay: Inhibition of RFC-mediated [3H]MTX influx into human CCRF-CEM cells; format: cell-based
T2 sequence (P41440 whole entry): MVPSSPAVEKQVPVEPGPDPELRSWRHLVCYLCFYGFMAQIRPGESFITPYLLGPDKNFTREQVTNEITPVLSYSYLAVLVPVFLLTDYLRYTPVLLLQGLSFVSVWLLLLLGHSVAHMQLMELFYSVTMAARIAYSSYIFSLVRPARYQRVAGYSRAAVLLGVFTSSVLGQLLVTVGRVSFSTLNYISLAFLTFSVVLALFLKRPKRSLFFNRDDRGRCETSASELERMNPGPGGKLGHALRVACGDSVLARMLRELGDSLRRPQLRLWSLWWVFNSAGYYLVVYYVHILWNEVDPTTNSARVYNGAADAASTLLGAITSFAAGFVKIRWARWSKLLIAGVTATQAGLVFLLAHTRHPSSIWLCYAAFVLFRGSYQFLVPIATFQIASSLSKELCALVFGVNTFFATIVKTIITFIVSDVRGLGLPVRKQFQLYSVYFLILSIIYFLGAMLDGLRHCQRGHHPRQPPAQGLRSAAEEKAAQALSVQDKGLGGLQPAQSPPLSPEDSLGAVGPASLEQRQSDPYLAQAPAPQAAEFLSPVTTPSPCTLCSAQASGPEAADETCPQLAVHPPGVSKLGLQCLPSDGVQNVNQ

CCRF-CEM = assay: Growth inhibition of human CCRF-CEM cells after 72 hrs; format: functional, cell-based

Row | SMILES | pKi (Dihydrofolate reductase) | pKi [1] | pIC50 (CCRF-CEM)
1 | CN(Cc1cnc2nc(N)nc(N)c2n1)c1ccc2c(c1)CN([C@@H](CCC(=O)O)C(=O)O)C2=O | 8.68 | 5.96 | 6.85
2 | Nc1nc(N)c2nc(CNc3ccc4c(c3)CN([C@@H](CCC(=O)O)C(=O)O)C4=O)cnc2n1 | 10.47 | 6.55 | 8.29
3 | Nc1nc(N)c2nc(CNc3ccc4c(c3)CN(C(CCC(=O)O)C(=O)O)C4=O)cnc2n1 (racemic) | 10.11 | 6.28 | 8.08
